Results reported in US12624034B2, “Non-covalent modifiers of AKT1 and uses thereof” (Terremoto Biosciences, Inc., priority 2023, dated 2026).
Read-outs that look alike come from different tables or passages of the source.

Columns and labels:
[1] = molecular target: T1, AKT1 WT (Homo sapiens, UniProt P31749); experiment: Live cell AKT1 WT target engagement by NanoBRET competitive probe displacement in HEK293 cells; assay type: binding; details: 2 h at 37° C., read-out: AKT1 WT IC50
T1 construct: expressed in transfected cells; host or cells: HEK293
T1 sequence (P31749 whole entry): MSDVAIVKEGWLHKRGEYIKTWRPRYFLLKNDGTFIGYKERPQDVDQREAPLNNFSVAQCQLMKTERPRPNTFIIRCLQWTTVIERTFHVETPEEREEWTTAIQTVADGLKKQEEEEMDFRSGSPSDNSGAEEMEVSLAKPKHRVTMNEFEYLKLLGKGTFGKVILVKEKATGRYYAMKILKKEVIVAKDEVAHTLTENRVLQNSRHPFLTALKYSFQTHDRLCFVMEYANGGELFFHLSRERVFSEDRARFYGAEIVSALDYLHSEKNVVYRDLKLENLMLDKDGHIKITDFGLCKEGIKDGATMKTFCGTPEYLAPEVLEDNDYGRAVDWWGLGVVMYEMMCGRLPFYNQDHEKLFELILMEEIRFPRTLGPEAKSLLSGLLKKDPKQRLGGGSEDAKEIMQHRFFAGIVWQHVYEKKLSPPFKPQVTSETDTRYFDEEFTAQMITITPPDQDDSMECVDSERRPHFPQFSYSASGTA
Description: (§1) Determining live cell AKT1 E17K, AKT1 WT, and AKT2 target engagement by NanoBRET competitive probe displacement. […] Briefly, HEK293 cells were transfected with plasmids encoding kinase-NanoLuciferase fusion proteins overnight. Cells were then treated with serial dilutions of compound and an ˜EC50 concentration of fluorescently-tagged ATP-competitive tracer (Promega). After incubation for 2 h at 37° C., luciferase substrate and extracellular luciferase inhibitor were added to all wells, and luminescent intensity at 460 nm and 600 nm were measured on a multimode plate-reader. The ratio of E600/E460 was calculated to give the tracer engagement signal (BRET). IC50 values were calculated by fitting BRET values to a log(inhibitor) vs. response Hill equation.

[2] = molecular target: T2, AKT2 (Homo sapiens, UniProt P31751); experiment: Live cell AKT2 target engagement by NanoBRET competitive probe displacement in HEK293 cells; assay type: binding; details: 2 h at 37° C., read-out: AKT2 IC50
T2 construct: expressed in transfected cells; host or cells: HEK293
T2 sequence (P31751 whole entry): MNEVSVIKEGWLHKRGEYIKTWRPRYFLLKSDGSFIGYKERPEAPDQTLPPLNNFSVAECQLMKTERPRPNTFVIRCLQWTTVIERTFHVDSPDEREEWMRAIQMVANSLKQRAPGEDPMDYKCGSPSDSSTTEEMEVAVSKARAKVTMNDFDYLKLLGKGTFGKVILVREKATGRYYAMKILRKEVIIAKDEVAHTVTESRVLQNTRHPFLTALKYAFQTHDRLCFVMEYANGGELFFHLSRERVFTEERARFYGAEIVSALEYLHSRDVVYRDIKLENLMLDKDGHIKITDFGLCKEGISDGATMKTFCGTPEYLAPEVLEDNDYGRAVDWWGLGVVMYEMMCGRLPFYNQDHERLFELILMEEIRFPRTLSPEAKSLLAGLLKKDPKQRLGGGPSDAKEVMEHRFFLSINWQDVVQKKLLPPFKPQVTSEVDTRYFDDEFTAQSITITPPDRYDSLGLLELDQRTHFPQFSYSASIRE
Description: as §1

[3] = NanoBRET competitive probe displacement, live HEK293 cells
[4] = NanoBRET live cell target engagement, HEK293 cells

Nc1ncccc1-c1nc2ccc(-n3cccn3)nc2n1-c1ccc2c(c1)CC[C@@H]2NC1CCCc2ccncc21 (some centres unmarked) [Compound 502]
IC50 [1, 3]: 0.134 µM
IC50 [2, 3]: 2.09 µM

Nc1ncccc1-c1nc2ccc(-n3cccn3)nc2n1-c1ccc2c(c1)CC[C@@H]2NC(=O)c1cccc(O)c1 [Compound 307]
IC50 [1, 4]: 0.0108 µM
IC50 [2, 4]: 0.123 µM

N#Cc1cc(-n2ccc(F)n2)nc2c1nc(-c1cccnc1N)n2-c1ccc2c(c1)CC[C@@H]2NC(=O)c1ccc(C(F)F)nc1 [Compound 329]
IC50 [1, 4]: 0.0147 µM
IC50 [2, 4]: 0.143 µM

Nc1ccc(C(=O)N[C@H]2CCc3cc(-n4c(-c5cccnc5N)nc5ccc(-n6cccn6)nc54)ccc32)cn1 [Compound 311]
IC50 [1, 4]: 0.0191 µM
IC50 [2, 4]: 0.191 µM

COc1cnn(-c2ccc3nc(-c4cccnc4N)n(-c4ccc5c(c4)CC[C@@H]5NC(=O)c4cnc(C(F)F)s4)c3n2)n1 [Compound 594]
IC50 [1, 3]: 0.0276 µM
IC50 [2, 3]: 2.69 µM

Nc1ncccc1-c1nc2ccc(-n3cccn3)nc2n1-c1ccc2c(c1)CC[C@@H]2NC(=O)c1ccnc2c1OC(F)(F)O2 [Compound 317]
IC50 [1, 4]: 0.131 µM
IC50 [2, 4]: 1.73 µM

Nc1ncccc1-c1nc2ccc(-n3cccn3)nc2n1-c1ccc2c(c1)CC[C@@H]2NC1CCN(C(=O)C2CC2)CC1F (some centres unmarked) [Compound 443]
IC50 [1, 3]: 0.0232 µM
IC50 [2, 3]: 0.94 µM

COc1cc(C(=O)N[C@H]2CCc3cc(-n4c(-c5cccnc5N)nc5ccc(-n6cccn6)nc54)ccc32)cc(F)n1 [Compound 344]
IC50 [1, 4]: 0.00797 µM
IC50 [2, 4]: 0.0196 µM

Nc1ncccc1-c1nc2ccc(-n3cccn3)nc2n1-c1ccc2c(c1)CC[C@@H]2NC1Cc2cccnc2C1 (some centres unmarked) [Compound 531]
IC50 [1, 3]: 0.0506 µM
IC50 [2, 3]: 1.28 µM

Nc1ncccc1-c1nc2ccc(-n3cccn3)nc2n1-c1ccc2c(c1)CC[C@@H]2NCc1ccncc1 [Compound 142]
IC50 [1, 4]: 0.0438 µM
IC50 [2, 4]: 0.886 µM

Nc1ncccc1-c1nc2ccc(-n3cccn3)nc2n1-c1ccc2c(c1)CC[C@@H]2N1CCC1 [Compound 87, (S)-3-(3-(1-(azetidin-1-yl)-2,3-dihydro-1H-inden-5-yl)-5-(1H-pyrazol-1-yl)-3H-imidazo[4,5-b]pyridin-2-yl)pyridin-2-amine]
IC50 [1, 4]: 0.149 µM
IC50 [2, 4]: 1.9 µM

Nc1ncccc1-c1nc2ccc(-n3ccc(C4COC4)n3)nc2n1-c1ccc2c(c1)CC[C@@H]2NC1CCN(C(=O)C2CC2)CC1 [Compound 597]
IC50 [1, 3]: 0.0661 µM
IC50 [2, 3]: 3.78 µM

COc1ncccc1C(=O)N[C@H]1CCc2cc(-n3c(-c4cccnc4N)nc4ccc(-n5cccn5)nc43)ccc21 [Compound 128]
IC50 [1, 4]: 0.0344 µM
IC50 [2, 4]: 0.442 µM

Cc1ccc(C(=O)N[C@H]2CCc3cc(-n4c(-c5cccnc5N)nc5ccc(-n6cccn6)nc54)ccc32)c(C)n1 [Compound 69]
IC50 [1, 4]: 0.0109 µM
IC50 [2, 4]: 0.0716 µM

Nc1ncccc1-c1nc2ccc(-n3cccn3)nc2n1-c1ccc2c(c1)CC[C@@H]2NC1CC2(CCCN(c3ccccn3)C2)C1 (some centres unmarked) [Compound 468]
IC50 [1, 3]: 0.0747 µM
IC50 [2, 3]: 1.96 µM

Cc1cnc(C(=O)N[C@H]2CCc3cc(-n4c(-c5cccnc5N)nc5ccc(-n6cccn6)nc54)ccc32)cn1 [Compound 185]
IC50 [1, 4]: 0.0653 µM
IC50 [2, 4]: 1.54 µM

COc1nccc2c1CCC2N[C@H]1CCc2cc(-n3c(-c4cccnc4N)nc4ccc(-n5cccn5)nc43)ccc21 (some centres unmarked) [Compound 508]
IC50 [1, 3]: 0.0759 µM
IC50 [2, 3]: 0.627 µM

Nc1ncccc1-c1nc2ccc(-n3cccn3)nc2n1-c1ccc2c(c1)CC[C@@H]2NC(=O)c1ccc2[nH]nnc2c1 [Compound 190]
IC50 [1, 4]: 0.0255 µM
IC50 [2, 4]: 0.122 µM

COc1cc(C(=O)N[C@H]2CCc3cc(-n4c(-c5cccnc5N)nc5ccc(-n6cccn6)nc54)ccc32)nn1C(F)F [Compound 324]
IC50 [1, 4]: 0.0231 µM
IC50 [2, 4]: 0.502 µM

Nc1ncccc1-c1nc2ccc(-n3cccn3)nc2n1-c1ccc2c(c1)CC[C@@H]2NC(=O)c1ccc(F)c(O)c1 [Compound 293]
IC50 [1, 4]: 0.0123 µM
IC50 [2, 4]: 0.0838 µM

Nc1ncccc1-c1nc2ccc(-n3cccn3)nc2n1-c1ccc2c(c1)CC[C@@H]2NC1CCc2cnccc2C1 (some centres unmarked) [Compound 464]
IC50 [1, 3]: 0.0192 µM
IC50 [2, 3]: 0.167 µM

CC(C)C(=O)N1CCC(N[C@@H]2c3ccc(-n4c(-c5cccnc5N)nc5ccc(-n6cccn6)nc54)cc3CC2F)CC1 (some centres unmarked) [Compound 542]
IC50 [1, 3]: 0.117 µM
IC50 [2, 3]: 2.33 µM

Nc1ncccc1-c1nc2ccc(-n3cccn3)nc2n1-c1ccc2c(c1)CC[C@@H]2NC(=O)c1cccnc1C(F)(F)F [Compound 110]
IC50 [1, 4]: 0.0462 µM
IC50 [2, 4]: 0.963 µM

Nc1ncccc1-c1nc2ccc(-n3cccn3)nc2n1-c1ccc2c(c1)CC[C@@H]2NC1CC2(CCN(c3ccccn3)C2)C1 (stereo partly drawn) [Compound 447, N-[(1S)-5-[2-(2-aminopyridin-3-yl)-5-(pyrazol-1-yl)imidazo[4,5-b]pyridin-3-yl]-2,3-dihydro-1H-inden-1-yl]-6-(pyridin-2-yl)-6-azaspiro[3.4]octan-2-amine]
IC50 [1, 3]: 0.0785 µM
IC50 [2, 3]: 1.49 µM

Nc1ncccc1-c1nc2ccc(C#CC3CC3)nc2n1-c1ccc2c(c1)CC(F)[C@@H]2NC1CCN(C(=O)C2CC2)CC1 (some centres unmarked) [Compound 521]
IC50 [1, 3]: 0.105 µM
IC50 [2, 3]: > 10 µM

COCCOc1cc(C(=O)N[C@H]2CCc3cc(-n4c(-c5cccnc5N)nc5ccc(-n6cccn6)nc54)ccc32)ccn1 [Compound 203]
IC50 [1, 4]: 0.0105 µM
IC50 [2, 4]: 0.0996 µM

CNC(=O)c1cccc(C(=O)N[C@H]2CCc3cc(-n4c(-c5cccnc5N)nc5ccc(-n6cccn6)nc54)ccc32)c1 [Compound 292]
IC50 [1, 4]: 0.0129 µM
IC50 [2, 4]: 0.0732 µM

Nc1ncccc1-c1nc2ccc(-n3cccn3)nc2n1-c1ccc2c(c1)CC[C@@H]2N1CCCCC1 [Compound 342, (S)-3-(3-(1-(piperidin-1-yl)-2,3-dihydro-1H-inden-5-yl)-5-(1H-pyrazol-1-yl)-3H-imidazo[4,5-b]pyridin-2-yl)pyridin-2-amine]
IC50 [1, 4]: 0.0439 µM
IC50 [2, 4]: 0.979 µM

Nc1ncccc1-c1nc2c(C(F)F)cc(-n3cccn3)nc2n1-c1ccc2c(c1)CC[C@@H]2NC(=O)c1ccc(C(F)F)nc1 [Compound 177, (S)—N-(5-(2-(2-aminopyridin-3-yl)-7-(difluoromethyl)-5-(1H-pyrazol-1-yl)-3H-imidazo[4,5-b]pyridin-3-yl)-2,3-dihydro-1H-inden-1-yl)-6-(difluoromethyl)nicotinamide]
IC50 [1, 4]: 0.0106 µM
IC50 [2, 4]: 0.0472 µM

Nc1ncccc1-c1nc2ccc(C#CC3CC3)nc2n1-c1ccc2c(c1)CC[C@@H]2NC1CN(C(=O)C2CC2)C1 [Compound 506]
IC50 [1, 3]: 0.0969 µM
IC50 [2, 3]: 8.94 µM

Cc1cc(-n2cccn2)nc2c1nc(-c1cccnc1N)n2-c1ccc2c(c1)CC[C@@H]2NC(=O)c1ccc(C(F)F)nc1 [Compound 101]
IC50 [1, 4]: 0.0119 µM
IC50 [2, 4]: 0.00802 µM

CC#Cc1ccc2nc(-c3cccnc3N)n(-c3ccc4c(c3)CC[C@@H]4NC(=O)c3ccc(C)nc3)c2n1 [Compound 265]
IC50 [1, 4]: 0.0359 µM
IC50 [2, 4]: 1.87 µM

Cc1cc(C(=O)N[C@H]2CCc3cc(-n4c(-c5cccnc5N)nc5ccc(-n6cccn6)nc54)ccc32)cc(C(F)(F)F)c1O [Compound 416]
IC50 [1, 3]: 0.00143 µM
IC50 [2, 3]: 0.034 µM

Nc1ncccc1-c1nc2ccc(-n3cccn3)nc2n1-c1ccc2c(c1)CC[C@@H]2NC(=O)c1ccc(OC(F)(F)F)nc1 [Compound 68]
IC50 [1, 4]: 0.00529 µM
IC50 [2, 4]: 0.0152 µM

Cc1ccc(C(C)N[C@H]2CCc3cc(-n4c(-c5cccnc5N)nc5ccc(-n6cccn6)nc54)ccc32)cn1 (some centres unmarked) [Compound 153]
IC50 [1, 4]: 0.12 µM
IC50 [2, 4]: 2.22 µM

Nc1ncccc1-c1nc2ccc(-n3nccn3)nc2n1-c1ccc2c(c1)CC[C@@H]2NC(=O)c1cnc(C2CC2)s1 [Compound 520]
IC50 [1, 3]: 0.00992 µM
IC50 [2, 3]: 0.198 µM

Nc1ncccc1-c1nc2ccc(-n3cccn3)nc2n1-c1ccc2c(c1)CC[C@@H]2NC(=O)c1ccc(O)c(Cl)c1 [Compound 258]
IC50 [1, 4]: 0.00306 µM
IC50 [2, 4]: 0.0603 µM

Cc1ncc(C(=O)N[C@H]2CCc3cc(-n4c(-c5cccnc5N)nc5ccc(-n6cccn6)nc54)ccc32)c(C)n1 [Compound 96]
IC50 [1, 4]: 0.0186 µM
IC50 [2, 4]: 0.0947 µM

CN(CCC1CC1)[C@H]1CCc2cc(-n3c(-c4cccnc4N)nc4ccc(-n5cccn5)nc43)ccc21 [Compound 458]
IC50 [1, 3]: 0.0934 µM
IC50 [2, 3]: 2.8 µM

Cc1ncccc1C(=O)N[C@H]1CCc2cc(-n3c(-c4cccnc4N)nc4c(F)cc(-n5cccn5)nc43)ccc21 [Compound 212]
IC50 [1, 4]: 0.0578 µM
IC50 [2, 4]: 0.158 µM

Nc1ncccc1-c1nc2ccc(-n3cccn3)nc2n1-c1ccc2c(c1)CC[C@@H]2NC(=O)c1ccccc1F [Compound 333]
IC50 [1, 4]: 0.00614 µM
IC50 [2, 4]: 0.0587 µM

COc1cc(C(=O)N[C@H]2CCc3cc(-n4c(-c5cccnc5N)nc5ccc(-n6cccn6)nc54)ccc32)nn1C [Compound 216]
IC50 [1, 4]: 0.0584 µM
IC50 [2, 4]: 1.39 µM

Cn1nc(F)cc1C(=O)N[C@H]1CCc2cc(-n3c(-c4cccnc4N)nc4ccc(-n5cccn5)nc43)ccc21 [Compound 396]
IC50 [1, 3]: 0.0147 µM
IC50 [2, 3]: 0.25 µM

COc1ccn(-c2ccc3nc(-c4cccnc4N)n(-c4ccc5c(c4)CC[C@@H]5NC4CCN(C(=O)C5CC5)CC4F)c3n2)n1 (some centres unmarked) [Compound 513]
IC50 [1, 3]: 0.0139 µM
IC50 [2, 3]: 0.24 µM

COc1cccc(-c2ccc3nc(-c4cccnc4N)n(-c4ccc5c(c4)CC(F)[C@@H]5NC4CCN(C(=O)C5CC5)CC4)c3n2)n1 (some centres unmarked) [Compound 545]
IC50 [1, 3]: 0.0208 µM
IC50 [2, 3]: 0.73 µM

CN(C)c1ccn(-c2ccc3nc(-c4cccnc4N)n(-c4ccc5c(c4)CC[C@@H]5NC4CCN(c5ccn(C)n5)CC4)c3n2)n1 [Compound 589]
IC50 [1, 3]: 0.0168 µM
IC50 [2, 3]: 0.65 µM
